Test results reported in patent US11351192B2, “De-colonization drug, preparation method therefor, and application thereof” (BEIJING HYGIENE & HEALTHCARE INNOVATION TECHNOLOGY CO., LTD., priority 2017, dated 2022).

Test system: multi-drug resistant bacteria
Type: in vivo, hospitalized patients
Text: Using the case-control experiment, all newly-increased patients with multi-drug resistant bacteria in the cooperative hospital are selected for a period of time. The hospitalized patients are divided into the control group and the experimental group, and the control group is selected to be applied intranasally with mupirocin for 5 consecutive days and twice daily.
During the experiment, it can be found by electron microscopy at 200-fold whether mucosa has interstitial edema, inflammatory cell infiltration or surface epithelial cell shedding; it can show by electron microscopy at 6000-fold whether the mitochondria in the glandular epithelial cells are swollen or edema, it can show by electron microscopy at 10000-fold whether the morphology and structure of the ciliated epithelial cells is normal. FIGS. 1 and 2 are the electron microscopic images of the nasal mucosa by electron microscopy at 200-fold.

[1] = hospitalized patients, decolonization drug twice a day 3 days, mupirocin twice daily 5 days

C/C(=C\C(=O)OCCCCCCCCC(=O)O)C[C@@H]1OC[C@H](C[C@@H]2O[C@H]2[C@@H](C)[C@H](C)O)[C@@H](O)[C@H]1O [mupirocin]
cases of methicillin-resistant Staphylococcus aureus (MRSA) [1]: 35 cases | cases of multi-drug resistant bacteria [1]: 120 cases | ratio of MRSA cases among multi-drug resistant bacteria cases [1]: 29.16% | adverse reactions (edema and hyperemia symptoms of nasal mucosa) (human, in vivo, 5 days): 2
